# Assay results from patent US20160303095A1, “METHODS OF TREATING HEPATITIS B VIRUS” (Gilead Sciences, Inc., priority 2015, published 2016).
# Where two headings read alike, the source gives them in different places.
# Test system: HBV
# Test: PHH screening protocol: HBsAg and HBeAg levels by MSD ELISA
# Format: cell-based, Hepatitis B Virus
# Conditions: for EC50: Hepatitis B virus
# Method: HBV antiviral activity was assessed in primary human hepatocytes (PHH) in a 96-well format. PHH were (Life Technologies, Chicago, 11) plated on collagen coated tissue culture plates using Plating Media containing William's Medium E supplemented with 1% Penicillin/Streptomycin, 4 μg/mL human recombinant insulin, 2 mM glutamax, 15 mM Hepes, 1 μM dexamethasone and 5% fetal bovine serum (Life Technologies, Cat#A12176-01 Life Technologies, Chicago, Ill.). After a 4-hour incubation at 37° C., cells were switched to Maintenance Media (Cat#CM4000-A15564 Life Technologies, Chicago, Ill.) containing William's Medium E supplemented with 0.5% Penicillin/Streptomycin, 6.25 μg/mL human recombinant insulin, 6.25 μg/mL human transferrin, 6.25 ng/mL selenous acid, 1.25 mg/mL bovine serum albumin, 5.35 μg/mL linoleic acid, 2 mM glutamax, 15 mM Hepes, 0.1 μM dexamethasone, 2% fetal bovine serum, and 2% DMSO (Cat#D2650 Sigma, St. Louis, Mo.). On the next day, cells were infected with approximately 500 genome equivalent of selected HBV clinical isolates (21P (GTA), 32P (GTA), 91P (GTA), AD38 (GTD), 65P (GTD) or 30P (GTE); ProteoGenex, Culver City, Calif.) per cell in Maintenance Media supplemented with 4% PEG 8000 (Cat#V3011 Promega, Madison, Wis.). After 24 hour incubation cells were washed three times with William's Medium E and fed with fresh Maintenance Media. Small molecule inhibitors targeting KDMs were serially diluted in Maintenance Media and added to cells at 3 days post infection (p.i.). Media with compounds was replenished every 2-3 days. Media collected on various days was used for determination of HBsAg and HBeAg levels by MSD ELISA, and HBV RNA by qPCR. All data were converted into percentages of the untreated control and non-linear regression was performed to calculate EC50 or CC50 values.
smiles,measurement,setting,value
CCOC(=O)c1ccnc(CNCC(=O)N(CC)CCN(C)C)c1 [Example 8],EC50,"336 h, read-out: HBeAg EC50, virus 30P, PHH donor 4239, d 14, compound removed after 14 days of treatment",4310 nM
same,EC50,"336 h, read-out: HBeAg EC50, virus 30P, PHH donor 4239, d 17, compound removed after 14 days of treatment",141 nM
same,EC50,"336 h, read-out: HBeAg EC50, virus 30P, PHH donor 4239, d 20, compound removed after 14 days of treatment",111 nM
same,EC50,"336 h, read-out: HBeAg EC50, virus 30P, PHH donor 4239, d 25, compound removed after 14 days of treatment",15 nM
same,EC50,"336 h, read-out: HBeAg EC50, virus 30P, PHH donor 4239, d 31, compound removed after 14 days of treatment",36 nM
same,EC50,"336 h, read-out: HBeAg EC50, virus 30P, PHH donor 8130, d 14, compound removed after 14 days of treatment",318 nM
same,EC50,"336 h, read-out: HBeAg EC50, virus 30P, PHH donor 8130, d 17, compound removed after 14 days of treatment",24 nM
same,EC50,"336 h, read-out: HBeAg EC50, virus 30P, PHH donor 8130, d 20, compound removed after 14 days of treatment",20 nM
same,EC50,"336 h, read-out: HBeAg EC50, virus 30P, PHH donor 8130, d 25, compound removed after 14 days of treatment",2 nM
same,EC50,"336 h, read-out: HBeAg EC50, virus 30P, PHH donor 8130, d 31, compound removed after 14 days of treatment",2 nM
same,EC50,"336 h, read-out: HBeAg EC50, virus AD38, PHH donor 4239, d 14, compound removed after 14 days of treatment",> 15000 nM
same,EC50,"336 h, read-out: HBeAg EC50, virus AD38, PHH donor 4239, d 17, compound removed after 14 days of treatment",1660 nM
same,EC50,"336 h, read-out: HBeAg EC50, virus AD38, PHH donor 4239, d 20, compound removed after 14 days of treatment",670 nM
same,EC50,"336 h, read-out: HBeAg EC50, virus AD38, PHH donor 4239, d 25, compound removed after 14 days of treatment",110 nM
same,EC50,"336 h, read-out: HBeAg EC50, virus AD38, PHH donor 4239, d 31, compound removed after 14 days of treatment",200 nM
same,EC50,"336 h, read-out: HBeAg EC50, virus AD38, PHH donor 8130, d 14, compound removed after 14 days of treatment",2420 nM
same,EC50,"336 h, read-out: HBeAg EC50, virus AD38, PHH donor 8130, d 17, compound removed after 14 days of treatment",840 nM
same,EC50,"336 h, read-out: HBeAg EC50, virus AD38, PHH donor 8130, d 20, compound removed after 14 days of treatment",190 nM
same,EC50,"336 h, read-out: HBeAg EC50, virus AD38, PHH donor 8130, d 25, compound removed after 14 days of treatment",30 nM
same,EC50,"336 h, read-out: HBeAg EC50, virus AD38, PHH donor 8130, d 31, compound removed after 14 days of treatment",10 nM
same,EC50,"336 h, read-out: HBsAg EC50, virus 30P, PHH donor 4239, d 14, compound removed after 14 days of treatment",> 15000 nM
same,EC50,"336 h, read-out: HBsAg EC50, virus 30P, PHH donor 4239, d 17, compound removed after 14 days of treatment",207 nM
same,EC50,"336 h, read-out: HBsAg EC50, virus 30P, PHH donor 4239, d 20, compound removed after 14 days of treatment",26 nM
same,EC50,"336 h, read-out: HBsAg EC50, virus 30P, PHH donor 4239, d 25, compound removed after 14 days of treatment",28 nM
same,EC50,"336 h, read-out: HBsAg EC50, virus 30P, PHH donor 4239, d 31, compound removed after 14 days of treatment",32 nM
same,EC50,"336 h, read-out: HBsAg EC50, virus 30P, PHH donor 8130, d 14, compound removed after 14 days of treatment",1 nM
same,EC50,"336 h, read-out: HBsAg EC50, virus 30P, PHH donor 8130, d 17, compound removed after 14 days of treatment",19 nM
same,EC50,"336 h, read-out: HBsAg EC50, virus 30P, PHH donor 8130, d 20, compound removed after 14 days of treatment",3 nM
same,EC50,"336 h, read-out: HBsAg EC50, virus 30P, PHH donor 8130, d 25, compound removed after 14 days of treatment",2 nM
same,EC50,"336 h, read-out: HBsAg EC50, virus 30P, PHH donor 8130, d 31, compound removed after 14 days of treatment",2 nM
same,EC50,"336 h, read-out: HBsAg EC50, virus AD38, PHH donor 4239, d 14, compound removed after 14 days of treatment",6300 nM
same,EC50,"336 h, read-out: HBsAg EC50, virus AD38, PHH donor 4239, d 17, compound removed after 14 days of treatment",842 nM
same,EC50,"336 h, read-out: HBsAg EC50, virus AD38, PHH donor 4239, d 20, compound removed after 14 days of treatment",300 nM
same,EC50,"336 h, read-out: HBsAg EC50, virus AD38, PHH donor 4239, d 25, compound removed after 14 days of treatment",372 nM
same,EC50,"336 h, read-out: HBsAg EC50, virus AD38, PHH donor 4239, d 31, compound removed after 14 days of treatment",152 nM
same,EC50,"336 h, read-out: HBsAg EC50, virus AD38, PHH donor 8130, d 14, compound removed after 14 days of treatment",2010 nM
same,EC50,"336 h, read-out: HBsAg EC50, virus AD38, PHH donor 8130, d 17, compound removed after 14 days of treatment",920 nM
same,EC50,"336 h, read-out: HBsAg EC50, virus AD38, PHH donor 8130, d 20, compound removed after 14 days of treatment",81 nM
same,EC50,"336 h, read-out: HBsAg EC50, virus AD38, PHH donor 8130, d 25, compound removed after 14 days of treatment",80 nM
same,EC50,"336 h, read-out: HBsAg EC50, virus AD38, PHH donor 8130, d 31, compound removed after 14 days of treatment",12 nM
same,EC50,"408 h, read-out: HBsAg EC50, virus 21P (GTA), PHH 4239, day 17 p.i.",700 nM
same,EC50,"408 h, read-out: HBsAg EC50, virus 21P (GTA), PHH 8130, day 17 p.i.",200 nM
same,EC50,"408 h, read-out: HBsAg EC50, virus 21P (GTA), PHH 8181, day 17 p.i.",20 nM
same,EC50,"408 h, read-out: HBsAg EC50, virus 30P (GTE), PHH 4239, day 17 p.i.",300 nM
same,EC50,"408 h, read-out: HBsAg EC50, virus 30P (GTE), PHH 8130, day 17 p.i.",200 nM
same,EC50,"408 h, read-out: HBsAg EC50, virus 30P (GTE), PHH 8181, day 17 p.i.",< 5 nM
same,EC50,"408 h, read-out: HBsAg EC50, virus 32P (GTA), PHH 4239, day 17 p.i.",30 nM
same,EC50,"408 h, read-out: HBsAg EC50, virus 32P (GTA), PHH 8130, day 17 p.i.",80 nM
same,EC50,"408 h, read-out: HBsAg EC50, virus 32P (GTA), PHH 8181, day 17 p.i.",< 2 nM
same,EC50,"408 h, read-out: HBsAg EC50, virus 65P (GTD), PHH 4239, day 17 p.i.",300 nM
same,EC50,"408 h, read-out: HBsAg EC50, virus 65P (GTD), PHH 8130, day 17 p.i.",2400 nM
same,EC50,"408 h, read-out: HBsAg EC50, virus 65P (GTD), PHH 8181, day 17 p.i.",< 2 nM
same,EC50,"408 h, read-out: HBsAg EC50, virus 91P (GTA), PHH 4239, day 17 p.i.",60 nM
same,EC50,"408 h, read-out: HBsAg EC50, virus 91P (GTA), PHH 8130, day 17 p.i.",30 nM
same,EC50,"408 h, read-out: HBsAg EC50, virus 91P (GTA), PHH 8181, day 17 p.i.",< 6 nM
same,EC50,"408 h, read-out: HBsAg EC50, virus AD38 (GTD), PHH 4239, day 17 p.i.",2000 nM
same,EC50,"408 h, read-out: HBsAg EC50, virus AD38 (GTD), PHH 8130, day 17 p.i.",1400 nM
same,EC50,"408 h, read-out: HBsAg EC50, virus AD38 (GTD), PHH 8181, day 17 p.i.",< 5 nM
same,EC50,"read-out: EC50 values (HBsAg), PHH donors 4239 and 8130, across patient viruses",30 to 2400 nM
same,EC50,"read-out: HBeAg EC50, D 8, PHH donor 8181, virus 21p",> 50000 nM
same,EC50,"read-out: HBeAg EC50, D 13, PHH donor 8181, virus 21p",160 nM
same,EC50,"read-out: HBeAg EC50, D 17, PHH donor 8181, virus 21p",< 20 nM
same,EC50,"read-out: HBeAg EC50, D 22, PHH donor 8181, virus 21p",< 20 nM
same,EC50,"read-out: HBeAg EC50, D 27, PHH donor 8181, virus 21p",< 20 nM
same,EC50,"read-out: HBeAg EC50, D 31, PHH donor 8181, virus 21p",< 20 nM
same,EC50,"read-out: HBeAg EC50, HBV-infected PHH",188 nM
same,EC50,"read-out: HBsAg EC50, D 8, PHH donor 8181, virus 21p",> 50000 nM
same,EC50,"read-out: HBsAg EC50, D 13, PHH donor 8181, virus 21p",150 nM
same,EC50,"read-out: HBsAg EC50, D 17, PHH donor 8181, virus 21p",< 20 nM
same,EC50,"read-out: HBsAg EC50, D 22, PHH donor 8181, virus 21p",< 20 nM
same,EC50,"read-out: HBsAg EC50, D 27, PHH donor 8181, virus 21p",< 20 nM
same,EC50,"read-out: HBsAg EC50, D 31, PHH donor 8181, virus 21p",< 20 nM
same,EC50,"read-out: HBsAg EC50, HBV-infected PHH",67 nM
same,inhibition of HBV HBsAg and HBeAg secretion compared to untreated cells,PHH donor 8181,more than 10 fold
same,time dependency of anti HBV activity,PHH donor 8181 infected with patient virus 21p (GTA),time dependent
